Laboratory results from ChEMBL document CHEMBL1687791, “Identification and characterization of four azole-resistant erg3 mutants of Candida albicans” (2010).
Values after ≈ are worked out from the molar mass of the structure shown.

Key:
Format in all cases: functional
Candida albicans [1] = assay: Antifungal activity against Candida albicans isolate 177 by broth dilution method
Candida albicans [2] = assay: Antifungal activity against Candida albicans isolate 14 by broth microdilution method
Candida albicans [3] = assay: Antifungal activity against Candida albicans isolate 1008 harboring ERG3 K97E, L193P, V237A, A351V, A353T and ERG11 E266D mutant genes by broth microdilution method
Candida albicans [4] = assay: Antifungal activity against Candida albicans isolate 490 harboring ERG3 D147G, T330A, A351V and ERG11 F72S, T229A, E266D, N440S, V488I, R523G mutant genes by broth microdilution method
Candida albicans [5] = assay: Antifungal activity against Candida albicans isolate 488 harboring ERG3 H243N, T330A, A351V and ERG11 D225G, E266D, E391G, V488I mutant genes by broth microdilution method
Candida albicans [6] = assay: Antifungal activity against Candida albicans isolate 12 harboring ERG3 W332R mutant gene by broth microdilution method
Candida albicans [7] = assay: Antifungal activity against Candida albicans isolate 6 by broth microdilution method
Candida albicans [8] = assay: Antifungal activity against Candida albicans isolate 12 harboring ERG3 W332R mutant gene assessed as 14alpha-methylergosta-8,24(28)-dien-3beta,6alpha-diol content in total sterol composition at 0.5 times MIC by GC-MS analysis
Candida albicans [9] = assay: Antifungal activity against Candida albicans isolate 488 harboring ERG3 H243N, T330A, A351V and ERG11 D225G, E266D, E391G, V488I mutant genes by broth microdilution method in presence of 10 uM drug efflux inhibitor FK506
Candida albicans [10] = assay: Antifungal activity against Candida albicans isolate 177 assessed as eburicol content in total sterol composition at 0.5 times MIC by GC-MS analysis
Candida albicans [11] = assay: Antifungal activity against Candida albicans isolate 1008 harboring ERG3 K97E, L193P, V237A, A351V, A353T and ERG11 E266D mutant genes assessed as 14alpha-methyl fecosterol content in total sterol composition at 0.5 times MIC by GC-MS analysis
Candida albicans [12] = assay: Antifungal activity against Candida albicans isolate 6 by broth microdilution method in presence of 10 uM drug efflux inhibitor FK506
Candida albicans [13] = assay: Antifungal activity against Candida albicans isolate 490 harboring ERG3 D147G, T330A, A351V and ERG11 F72S, T229A, E266D, N440S, V488I, R523G mutant genes assessed as ergosterol content in total sterol composition at 0.5 times MIC by GC-MS analysis
Candida albicans [14] = assay: Antifungal activity against Candida albicans isolate 1008 harboring ERG3 K97E, L193P, V237A, A351V, A353T and ERG11 E266D mutant genes assessed as lanosterol/obtusifoliol content in total sterol composition at 0.5 times MIC by GC-MS analysis
Candida albicans [15] = assay: Antifungal activity against Candida albicans isolate 177 assessed as 14alpha-methylergosta-8,24(28)-dien-3beta,6alpha-diol content in total sterol composition at 0.5 times MIC by GC-MS analysis
Candida albicans [16] = assay: Antifungal activity against Candida albicans isolate 488 harboring ERG3 H243N, T330A, A351V and ERG11 D225G, E266D, E391G, V488I mutant genes assessed as ergosterol content in total sterol composition at 0.5 times MIC by GC-MS analysis
Candida albicans [17] = assay: Antifungal activity against Candida albicans isolate 490 harboring ERG3 D147G, T330A, A351V and ERG11 F72S, T229A, E266D, N440S, V488I, R523G mutant genes assessed as 14alpha-methylergosta-8,24(28)-dien-3beta,6alpha-diol content in total sterol composition at 0.5 times MIC by GC-MS analysis
Candida albicans [18] = assay: Antifungal activity against Candida albicans isolate 12 harboring ERG3 W332R mutant gene assessed as ergosterol content in total sterol composition at 0.5 times MIC by GC-MS analysis
Candida albicans [19] = assay: Antifungal activity against Candida albicans isolate 177 by broth dilution method in presence of 10 uM drug efflux inhibitor FK506
Candida albicans [20] = assay: Antifungal activity against Candida albicans isolate 1008 harboring ERG3 K97E, L193P, V237A, A351V, A353T and ERG11 E266D mutant genes assessed as eburicol content in total sterol composition at 0.5 times MIC by GC-MS analysis
Candida albicans [21] = assay: Antifungal activity against Candida albicans isolate 6 assessed as ergosterol content in total sterol composition at 0.5 times MIC by GC-MS analysis
Candida albicans [22] = assay: Antifungal activity against Candida albicans isolate 12 harboring ERG3 W332R mutant gene assessed as 14alpha-methyl fecosterol content in total sterol composition at 0.5 times MIC by GC-MS analysis
Candida albicans [23] = assay: Antifungal activity against Candida albicans isolate 488 harboring ERG3 H243N, T330A, A351V and ERG11 D225G, E266D, E391G, V488I mutant genes assessed as lanosterol/obtusifoliol content in total sterol composition at 0.5 times MIC by GC-MS analysis
Candida albicans [24] = assay: Antifungal activity against Candida albicans isolate 488 harboring ERG3 H243N, T330A, A351V and ERG11 D225G, E266D, E391G, V488I mutant genes assessed as eburicol content in total sterol composition at 0.5 times MIC by GC-MS analysis
Candida albicans [25] = assay: Antifungal activity against Candida albicans isolate 488 harboring ERG3 H243N, T330A, A351V and ERG11 D225G, E266D, E391G, V488I mutant genes assessed as 14alpha-methyl fecosterol content in total sterol composition at 0.5 times MIC by GC-MS analysis
Candida albicans [26] = assay: Antifungal activity against Candida albicans isolate 1008 harboring ERG3 K97E, L193P, V237A, A351V, A353T and ERG11 E266D mutant genes assessed as ergosta 7,22-dienol content in total sterol composition at 0.5 times MIC by GC-MS analysis
Candida albicans [27] = assay: Antifungal activity against Candida albicans isolate 6 assessed as 14alpha-methylergosta-8,24(28)-dien-3beta,6alpha-diol content in total sterol composition at 0.5 times MIC by GC-MS analysis
Candida albicans [28] = assay: Antifungal activity against Candida albicans isolate 490 harboring ERG3 D147G, T330A, A351V and ERG11 F72S, T229A, E266D, N440S, V488I, R523G mutant genes assessed as 14alpha-methyl fecosterol content in total sterol composition at 0.5 times MIC by GC-MS analysis
Candida albicans [29] = assay: Antifungal activity against Candida albicans isolate 12 harboring ERG3 W332R mutant gene assessed as eburicol content in total sterol composition at 0.5 times MIC by GC-MS analysis
Candida albicans [30] = assay: Antifungal activity against Candida albicans isolate 12 harboring ERG3 W332R mutant gene assessed as lanosterol/obtusifoliol content in total sterol composition at 0.5 times MIC by GC-MS analysis
Candida albicans [31] = assay: Antifungal activity against Candida albicans isolate 12 harboring ERG3 W332R mutant gene by broth microdilution method in presence of 10 uM drug efflux inhibitor FK506
Candida albicans [32] = assay: Antifungal activity against Candida albicans isolate 177 assessed as ergosterol content in total sterol composition at 0.5 times MIC by GC-MS analysis
Candida albicans [33] = assay: Antifungal activity against Candida albicans isolate 1008 harboring ERG3 K97E, L193P, V237A, A351V, A353T and ERG11 E266D mutant genes by broth microdilution method in presence of 10 uM drug efflux inhibitor FK506
Candida albicans [34] = assay: Antifungal activity against Candida albicans isolate 490 harboring ERG3 D147G, T330A, A351V and ERG11 F72S, T229A, E266D, N440S, V488I, R523G mutant genes by broth microdilution method in presence of 10 uM drug efflux inhibitor FK506
Candida albicans [35] = assay: Antifungal activity against Candida albicans isolate 6 assessed as eburicol content in total sterol composition at 0.5 times MIC by GC-MS analysis
Candida albicans [36] = assay: Antifungal activity against Candida albicans isolate 14 assessed as lanosterol/obtusifoliol content in total sterol composition at 0.5 times MIC by GC-MS analysis
Candida albicans [37] = assay: Antifungal activity against Candida albicans isolate 177 assessed as 14alpha-methyl fecosterol content in total sterol composition at 0.5 times MIC by GC-MS analysis
Candida albicans [38] = assay: Antifungal activity against Candida albicans isolate 14 assessed as ergosterol content in total sterol composition at 0.5 times MIC by GC-MS analysis
Candida albicans [39] = assay: Antifungal activity against Candida albicans isolate 14 by broth microdilution method in presence of 10 uM drug efflux inhibitor FK506
Candida albicans [40] = assay: Antifungal activity against Candida albicans isolate 14 assessed as 14alpha-methylergosta-8,24(28)-dien-3beta,6alpha-diol content in total sterol composition at 0.5 times MIC by GC-MS analysis

## CCC(C)n1ncn(-c2ccc(N3CCN(c4ccc(OCC5COC(Cn6cncn6)(c6ccc(Cl)cc6Cl)O5)cc4)CC3)cc2)c1=O (centres undefined) [ITRACONAZOLE]
Candida albicans [1]
  MIC: 16 µg/mL (≈ 22.7 µM)
Candida albicans [2]
  MIC: 0.0625 µg/mL (≈ 0.0886 µM)
Candida albicans [3]
  MIC: > 16 µg/mL
Candida albicans [4]
  MIC: > 16 µg/mL
Candida albicans [5]
  MIC: > 16 µg/mL
Candida albicans [6]
  MIC: > 16 µg/mL
Candida albicans [7]
  MIC: 16 µg/mL (≈ 22.7 µM)

## CC(=O)N1CCN(c2ccc(OCC3COC(Cn4ccnc4)(c4ccc(Cl)cc4Cl)O3)cc2)CC1 (centres undefined) [KETOCONAZOLE]
Candida albicans [1]
  MIC: 16 µg/mL (≈ 30.1 µM)
Candida albicans [2]
  MIC: 0.0625 µg/mL (≈ 0.118 µM)
Candida albicans [3]
  MIC: > 16 µg/mL
Candida albicans [4]
  MIC: 8 µg/mL (≈ 15.1 µM)
Candida albicans [5]
  MIC: 8 µg/mL (≈ 15.1 µM)
Candida albicans [6]
  MIC: > 16 µg/mL
Candida albicans [7]
  MIC: 16 µg/mL (≈ 30.1 µM)

## C[C@@H](c1ncncc1F)[C@](O)(Cn1cncn1)c1ccc(F)cc1F [VORICONAZOLE]
Candida albicans [1]
  MIC: 16 µg/mL (≈ 45.8 µM)
Candida albicans [8]
  Activity: 1.8%
Candida albicans [9]
  MIC: 0.0625 µg/mL
Candida albicans [10]
  Activity: 5%
Candida albicans [11]
  Activity: 65.1%
Candida albicans [12]
  MIC: < 0.0625 µg/mL
Candida albicans [13]
  Activity: 6.3%
Candida albicans [14]
  Activity: 19%
Candida albicans [15]
  Activity: 35.4%
Candida albicans [16]
  Activity: 8%
Candida albicans [2]
  MIC: 0.0625 µg/mL (≈ 0.179 µM)
Candida albicans [17]
  Activity: 13.5%
Candida albicans [18]
  Activity: 2.9%
Candida albicans [3]
  MIC: > 16 µg/mL
Candida albicans [19]
  MIC: < 0.0625 µg/mL
Candida albicans [20]
  Activity: 13.7%
Candida albicans [21]
  Activity: 46.1%
Candida albicans [4]
  MIC: > 16 µg/mL
Candida albicans [22]
  Activity: 69.2%
Candida albicans [23]
  Activity: 15.8%
Candida albicans [24]
  Activity: 7.5%
Candida albicans [5]
  MIC: > 16 µg/mL
Candida albicans [6]
  MIC: > 16 µg/mL
Candida albicans [7]
  MIC: 16 µg/mL (≈ 45.8 µM)
Candida albicans [25]
  Activity: 57.2%
Candida albicans [26]
  Activity: 2.2%
Candida albicans [27]
  Activity: 37.2%
Candida albicans [28]
  Activity: 69.1%
Candida albicans [29]
  Activity: 9.9%
Candida albicans [30]
  Activity: 16.2%
Candida albicans [31]
  MIC: > 16 µg/mL
Candida albicans [32]
  Activity: 45%
Candida albicans [33]
  MIC: > 16 µg/mL
Candida albicans [34]
  MIC: 0.0625 µg/mL
Candida albicans [35]
  Activity: 4.8%
Candida albicans [36]
  Activity: 24.1%
Candida albicans [37]
  Activity: 2.9%
Candida albicans [38]
  Activity: 47.3%
Candida albicans [39]
  MIC: < 0.0625 µg/mL
Candida albicans [40]
  Activity: 28.6%
